Experimental data as given in patent US20050272606A1, “Plant life control composition” (priority 1999, published 2005).

What was measured:
Assay in all cases: POST trolley belt sprayer test (Example 3)
Conditions in all cases: 600 g/ha, 14 DAT
[1] = system: Broadleaf Weeds (Avg Dicot); type: in vivo
Procedure: (§1) All POST crops and weeds plants were grown into separate square pots which measured 10×10 cm. The soil used was amended with Redi-Eartho Plug and Seedling Mix in a one to one ratio. Ten to twenty seeds per small seeded species were planted per pot. Five to ten seeds were planted with large seeded species. Seeds were sown 0.5 inches deep. Generally, POST plants were 7 to 21 days old (from planting) when sprayed. Grasses were in the 2-4 leaf stage and broadleaf weeds were in the 1-2 true leaf stage.
(§2) The spray volume was 50 gallons per acre (468 I/Ha). Rates of application (grams per hectare) varied depending on the concentration of chemical within each individual spray solution. Technical samples were dissolved in acetone. Formulations are suspended in water. All applications were made using a trolley belt sprayer. The test plants were placed on the belt inside the spray hood. Then the spray nozzle which is attached to the trolley, moves mechanically over the top of the plants. The spray nozzle delivers a flat fan spray pattern and is a typical nozzle used in herbicide field applications. The belt carries the plants out of the spray hood and into a drying chamber.
(§3) After spray application, the test plants were placed in a vented cabinet until dry, then placed in the greenhouse. […] The trolley sprayer settings were as follows (50 (GPA) Gallons Per Acre or (468 L/Ha): […]

[2] = system: Grassy Weeds (Avg Monocot); type: in vivo
Procedure: as §1, §2, §3

[3] = system: BID (Bidens); type: in vivo, Bidens pilosa
Procedure: as §1, §2, §3

[4] = system: CKL (Cocklebur); type: in vivo, Xanthium pensylvanicum
Procedure: as §1, §2, §3

[5] = system: MG (Morningglory); type: in vivo, Ipomoea hederacea
Procedure: as §1, §2, §3

[6] = system: NS (Nightshade); type: in vivo, Solanum nigrum
Procedure: as §1, §2, §3

[7] = system: PIG (Pigweed); type: in vivo, Amaranthus retroflexus
Procedure: as §1, §2, §3

[8] = system: SMT (Smartweed); type: in vivo, Polygonum lapathifolium
Procedure: as §1, §2, §3

[9] = system: TEA (Teaweed); type: in vivo, Sida spinosa
Procedure: as §1, §2, §3

[10] = system: VEL (Velvetleaf); type: in vivo, Abutilon theophrasti
Procedure: as §1, §2, §3

[11] = system: BP (Blue panicum); type: in vivo, Panicum antidotale
Procedure: as §1, §2, §3

[12] = system: BYG (Barnyardgrass); type: in vivo, Echinochloa crus-galli
Procedure: as §1, §2, §3

[13] = system: CRB (Crabgrass); type: in vivo, Digitaria sanguinalis
Procedure: as §1, §2, §3

[14] = system: FOX (Foxtail); type: in vivo, Setaria viridis
Procedure: as §1, §2, §3

[15] = system: NUT (Nutsedge); type: in vivo, Cyperus esculentus
Procedure: as §1, §2, §3

[16] = system: RYE (Ryegrass); type: in vivo, Lolium multiflorum
Procedure: as §1, §2, §3

[17] = system: SIG (Signalgrass); type: in vivo, Brachiaria platyphylla
Procedure: as §1, §2, §3

[18] = system: SPR (Sprangletop); type: in vivo, Leptochloa dubia
Procedure: as §1, §2, §3

[19] = system: CN (Corn); type: in vivo, Zea mays
Procedure: as §1, §2, §3

[20] = system: COT (Cotton); type: in vivo, Gossypium hirsutum
Procedure: as §1, §2, §3

[21] = system: RI (Rice); type: in vivo, Oryza sativa
Procedure: as §1, §2, §3

[22] = system: SOY (Soybean); type: in vivo, Glycine max
Procedure: as §1, §2, §3

[23] = system: WHT (Wheat); type: in vivo, Triticum spp.
Procedure: as §1, §2, §3

C[n+]1ccc(-c2cc[n+](C)cc2)cc1 [Paraquat]
% POST Control of Broadleaf Weeds, Avg Dicot [1]: 98% | % POST Control of Grassy Weeds, Avg Monocot [2]: 93% | % POST Control of Broadleaf Weeds [3]: 100% | % POST Control of Broadleaf Weeds [4]: 100% | % POST Control of Broadleaf Weeds [5]: 100% | % POST Control of Broadleaf Weeds [6]: 100% | % POST Control of Broadleaf Weeds [7]: 100% | % POST Control of Broadleaf Weeds [8]: 100% | % POST Control of Broadleaf Weeds [9]: 85% | % POST Control of Broadleaf Weeds [10]: 100% | % POST Control of Grassy Weeds [11]: 100% | % POST Control of Grassy Weeds [12]: 95% | % POST Control of Grassy Weeds [13]: 90% | % POST Control of Grassy Weeds [14]: 90% | % POST Control of Grassy Weeds [15]: 85% | % POST Control of Grassy Weeds [16]: 100% | % POST Control of Grassy Weeds [17]: 85% | % POST Control of Grassy Weeds [18]: 100% | % Crop Injury [19]: 85% | % Crop Injury [20]: 100% | % Crop Injury [21]: 100% | % Crop Injury [22]: 100% | % Crop Injury [23]: 100%
